Assay results as given in PMC4339026 (Biopolymers, 2014).

Tests used:
ADAM10 = biological target: T1, ADAM10 (Homo sapiens, UniProt O14672); experiment: Selectivity testing against zinc metalloproteases: ADAM10; format: biochemical; settings: read-out: IC50 ADAM10; n = 3 Mean ± SD
T1 sequence (O14672 214-748): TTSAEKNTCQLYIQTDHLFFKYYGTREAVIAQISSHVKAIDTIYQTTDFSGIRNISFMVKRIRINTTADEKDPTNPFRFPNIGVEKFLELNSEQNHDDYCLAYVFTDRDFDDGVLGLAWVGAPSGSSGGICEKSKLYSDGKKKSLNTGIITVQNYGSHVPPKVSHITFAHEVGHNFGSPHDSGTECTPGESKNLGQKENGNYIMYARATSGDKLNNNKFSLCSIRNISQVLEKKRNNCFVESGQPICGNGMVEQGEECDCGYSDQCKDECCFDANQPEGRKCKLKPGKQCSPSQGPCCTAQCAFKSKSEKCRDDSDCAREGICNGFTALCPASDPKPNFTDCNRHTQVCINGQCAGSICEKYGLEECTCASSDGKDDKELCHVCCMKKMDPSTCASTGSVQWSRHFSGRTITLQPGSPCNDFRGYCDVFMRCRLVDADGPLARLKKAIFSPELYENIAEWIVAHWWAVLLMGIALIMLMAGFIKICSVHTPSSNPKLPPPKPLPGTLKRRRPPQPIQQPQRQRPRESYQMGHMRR

meprin β = biological target: T2, meprin β (Homo sapiens, UniProt Q16820); experiment: Meprin β LOPAC pilot screen; format: biochemical; settings: 18 μM
T2 sequence (Q16820 62-614 limits assumed): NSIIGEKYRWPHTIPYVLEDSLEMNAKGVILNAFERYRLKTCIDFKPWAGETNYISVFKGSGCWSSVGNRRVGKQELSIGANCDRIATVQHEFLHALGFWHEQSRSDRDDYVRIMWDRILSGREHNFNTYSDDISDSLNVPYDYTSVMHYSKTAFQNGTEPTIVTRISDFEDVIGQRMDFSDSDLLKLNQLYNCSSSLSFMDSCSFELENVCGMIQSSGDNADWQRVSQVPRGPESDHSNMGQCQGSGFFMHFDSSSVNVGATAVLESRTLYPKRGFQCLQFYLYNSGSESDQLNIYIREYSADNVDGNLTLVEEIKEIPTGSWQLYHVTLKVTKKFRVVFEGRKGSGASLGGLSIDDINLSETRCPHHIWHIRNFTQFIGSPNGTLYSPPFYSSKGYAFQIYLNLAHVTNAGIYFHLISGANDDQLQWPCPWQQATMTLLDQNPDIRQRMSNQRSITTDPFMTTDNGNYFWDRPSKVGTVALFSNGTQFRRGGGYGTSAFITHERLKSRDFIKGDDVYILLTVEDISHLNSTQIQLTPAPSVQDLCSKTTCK

SMILES: O=C(Nc1cc(C(=O)Nc2ccc(S(=O)(=O)O)cc2S(=O)(=O)O)cc(C(=O)Nc2ccc(S(=O)(=O)O)cc2S(=O)(=O)O)c1)Nc1cc(C(=O)Nc2ccc(S(=O)(=O)O)cc2S(=O)(=O)O)cc(C(=O)Nc2ccc(S(=O)(=O)O)cc2S(=O)(=O)O)c1 [NF449, 4,4′,4″,4‴-[Carbonyl-bis[imino-5,1,3-benzenetriylbis-(carbonyl-imino)]]tetrakis(benzene-1,3-disulfonic acid)]
- IC50 (ADAM10): 1.2 ± 0.1 µM
- % inhibition meprin β in pilot screen (meprin β): negative inhibition values
- meprin β LOPAC pilot screen outcome (meprin β; hit cutoff 25% inhibition): selective hits
